Measured values reported in patent publication US20090270306A1, “Glass Storage” (priority 2005, published 2009).
Read-outs that look alike come from different tables or passages of the source.

How the values were obtained:
[1] = initial pKa, cited from earlier work
[2] = pH behaviour on addition of sodium hydroxide (FIG. 1); format: physicochemical; settings: 0.2 g in 200 ml water, 0.1M sodium hydroxide added; during almost the entire addition
[3] = 1% solution in water
[4] = other suitable buffer compounds (Table 3)
[5] = buffers tested for stain inhibitor performance (Table 1)

In the case of `O=S(=O)(O)CC(O)CN1CCN(CC(O)CS(=O)(=O)O)CC1` (stereo not drawn) [POPSO, piperazine-N-N′-bis (2-hydroxypropanesulphonic acid)], the pKa [1, 4] is given as 7.8.

For `O=C(O)CCCCC(=O)O` [adipic acid], the “pH during addition of alkali” value [2] was less than 5 and the pH of solution [3] was 2.8.

For `O=S(=O)(O)CCNC1CCCCC1` [CHES, 2-(cyclohexylamino) ethanesulphonic acid], the pKa [1, 4] is listed as 9.5.

In the case of `O=C(O)CNC(CO)(CO)CO` [Tricine, N-[tris (hydroxymethyl)methy] glycine], the pKa [1, 5] is listed as 8.2.

For `O=S(=O)(O)CCCNC(CO)(CO)CO` [TAPS, N-[tris(hydroxymethyl)methyl]-3-aminopropanesulphonic acid], the pKa [1, 5] is given as 8.4.
